Patent US9072293B2, “Cyclopropenes and method for applying cyclopropenes to agricultural products or crops” (Erum Biotechnologies Inc., priority 2010, dated 2015)
Values joined by “and” are separate entries in the source; they are usually repeats but may differ in a detail not shown here. Equal entries are not always repeated.

How the values were obtained:
[1] = tested on: tomato; assay: Experimental Example 1: Efficacy test on tomato using emulsion (reddening grade); assay type: in vivo; conditions: individual tomatoes n=4
Protocol: In situ, a 1.0 mM 1-octylcyclopropene formulation was prepared using (trans)-1-octyl-1-(methanesulfonyloxy)-2-(trimethylsilyl)cyclopropane of Preparation Example 10 in the same manner as in Example 7. This solution was diluted to 1 to 100 times prior to use, as necessary. Experimental Example 1: Efficacy test on tomato using emulsion 1.0 mM formulations of five agents such as 1-(2-phenylethyl)cyclopropene, 1-(3-phenylpropyl)cyclopropene, 1-(4-phenylbutyl)cyclopropene, 1-(5-phenylpentyl)cyclopropene and 1-hexylcyclopropene were prepared in the same manner as in Example 1, and 1.0 mM and 100 μM solutions were prepared therefrom. Then, the effects of the solutions were compared with non-treated groups and control groups in which a surfactant or a stabilizing agent (sodium dodecylbenzenesulfonate or tristyrenylphenykethoxy)12ethanol) is dissolved.
Tomatoes whose top end began to turn pink were screened, harvested and divided into 12 groups (n=4) in total, i.e., non-treated groups, control groups (surfactant) and agent groups with different concentrations such as 100 μM and 1.0 mM. Tomatoes were treated with the prepared agent formulation using a household sprayer such that the surface thereof was saturated. The tomatoes were stood at room temperature (25-30° C.) for 3 days and a reddening level thereof was evaluated based on grades of 0 to 5.
(§1) At this time, the tops of tomatoes most early turned red, while the bottoms thereof most lately turned red. For this reason, in order to accurately evaluate the difference in reddening, the coloring evaluated was based on the area of red color, rather than the color of tomatoes. […] Accordingly, the grade level is proportional to the rate at which the tomatoes ripened.

[2] = tested on: tomato; assay: Experimental Example 2: Efficacy test on tomato using oil based formulation (reddening grade); assay type: in vivo; conditions: 1.0 mM oil-based formulation, individual tomatoes n=4
Description: as §1
As illustrated in Example 1, in situ, in accordance with the methods of Preparation Examples 15, 16, 17, 18 and 22, five agents (1.0 mmol) such as 1-(2-phenylethyl)cyclopropene, 1-(3-phenylpropyl)cyclopropene, 1-(4-phenylbutyl)cyclopropene, 1-(5-phenylpentyl)cyclopropene and 1-hexylcyclopropene were prepared, 5.0 ml of xylene and 5.0 ml of water were added to the reaction solution, vigorously stirred for 5 minutes and stood. When the mixture was separated into an organic layer (upper layer) and an aqueous layer (lower layer), only the organic layer was collected and the aqueous layer was discarded. […] of hexane was added to the organic layer and homogeneously mixed to prepare a 1.0 mM oil-based formulation.
The tomatoes were screened in the same manner as in Experimental Example 1 and divided into 7 groups (n=4) including a non-treated group, a control group (solvent-treated group) and 5 agent groups. Tomatoes were treated with the previously prepared agent using a household sprayer such that the surface thereof was saturated. The tomatoes were stood at room temperature (25-30° C.) for 3 days and a reddening level thereof was evaluated based on grades of 0 to 5.

[3] = Relative chemical stability of cyclopropenes measured by 1H-NMR; assay type: physicochemical
How it was run: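 Compounds in CDCl3 NMR tubes stored at −20° C. or room temperature and followed by 1H-NMR. Integrals of characteristic 1-alkylcyclopropene peaks (4–6.5 ppm, 1H; 0.8–0.9 ppm, 2H) compared against 1,1,3,3-tetramethylurea internal standard (2.80 ppm); stability expressed relative to chain-length-1 analogue.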

Structure (SMILES): C1=C(CCCCc2ccccc2)C1 [(4-Phenylbutyl), 1-(4-phenylbutyl)cyclopropene]
- reddening level (grade 0 to 5) ([1]; 100 μM, Day 0, room temperature (25-30° C.)): 0 (an area in which the surface of tomato was colored in pink was 10% or less) (2×) and 1 (an area in which the surface of tomato was completely colored in red was 10 to 40%) and 2 (an area in which the surface of tomato was completely colored in red was 40 to 70%)
- reddening level (grade 0 to 5) ([1]; 100 μM, Day 1, room temperature (25-30° C.)): 0 (an area in which the surface of tomato was colored in pink was 10% or less) (2×) and 1 (an area in which the surface of tomato was completely colored in red was 10 to 40%) and 2 (an area in which the surface of tomato was completely colored in red was 40 to 70%)
- reddening level (grade 0 to 5) ([1]; 100 μM, Day 2, room temperature (25-30° C.)): 1 (an area in which the surface of tomato was completely colored in red was 10 to 40%) (2×) and 2 (an area in which the surface of tomato was completely colored in red was 40 to 70%) and 3 (an area in which the surface of tomato was completely colored in red was 70% or more and the bottom area remained green)
- reddening level (grade 0 to 5) ([1]; 100 μM, Day 3, room temperature (25-30° C.)): 2 (an area in which the surface of tomato was completely colored in red was 40 to 70%) (2×) and 3 (an area in which the surface of tomato was completely colored in red was 70% or more and the bottom area remained green) and 4
- reddening level (grade 0 to 5) ([1]; 1.0 mM, Day 0, room temperature (25-30° C.)): 0 (an area in which the surface of tomato was colored in pink was 10% or less) (2×) and 1 (an area in which the surface of tomato was completely colored in red was 10 to 40%) and 2 (an area in which the surface of tomato was completely colored in red was 40 to 70%)
- reddening level (grade 0 to 5) ([1]; 1.0 mM, Day 1, room temperature (25-30° C.)): 0 (an area in which the surface of tomato was colored in pink was 10% or less) (2×) and 1 (an area in which the surface of tomato was completely colored in red was 10 to 40%) and 2 (an area in which the surface of tomato was completely colored in red was 40 to 70%)
- reddening level (grade 0 to 5) ([1]; 1.0 mM, Day 2, room temperature (25-30° C.)): 0 (an area in which the surface of tomato was colored in pink was 10% or less) (2×) and 1 (an area in which the surface of tomato was completely colored in red was 10 to 40%) and 3 (an area in which the surface of tomato was completely colored in red was 70% or more and the bottom area remained green)
- reddening level (grade 0 to 5) ([1]; 1.0 mM, Day 3, room temperature (25-30° C.)): 1 (an area in which the surface of tomato was completely colored in red was 10 to 40%) (2×) and 2 (an area in which the surface of tomato was completely colored in red was 40 to 70%) and 3 (an area in which the surface of tomato was completely colored in red was 70% or more and the bottom area remained green)
- Tomato results: reddening level (grade 0 to 5) ([2]; Day 0, room temperature (25-30° C.)): 0 (an area in which the surface of tomato was colored in pink was 10% or less) (2×) and 1 (an area in which the surface of tomato was completely colored in red was 10 to 40%) and 2 (an area in which the surface of tomato was completely colored in red was 40 to 70%)
- Tomato results: reddening level (grade 0 to 5) ([2]; Day 1, room temperature (25-30° C.)): 0 (an area in which the surface of tomato was colored in pink was 10% or less) (2×) and 1 (an area in which the surface of tomato was completely colored in red was 10 to 40%) and 2 (an area in which the surface of tomato was completely colored in red was 40 to 70%)
- Tomato results: reddening level (grade 0 to 5) ([2]; Day 2, room temperature (25-30° C.)): 0 (an area in which the surface of tomato was colored in pink was 10% or less) (2×) and 1 (an area in which the surface of tomato was completely colored in red was 10 to 40%) and 3 (an area in which the surface of tomato was completely colored in red was 70% or more and the bottom area remained green)
- Tomato results: reddening level (grade 0 to 5) ([2]; Day 3, room temperature (25-30° C.)): 1 (an area in which the surface of tomato was completely colored in red was 10 to 40%) and 0 (an area in which the surface of tomato was colored in pink was 10% or less) and 2 (an area in which the surface of tomato was completely colored in red was 40 to 70%) and 4
- chemical stability (in words) [3]: much more stable
- Stability (relative chemical stability, based on cyclopropenes having a chain length of 1) ([3]; 1H-NMR, CDCl3, stored at −20° C. or room temperature, relative to chain length 1): >>10
